4 molecules from patent US11358969B2, “Indole AHR inhibitors and uses thereof” (Ikena Oncology, Inc., priority 2017, dated 2022) can be followed below.

Each structure is given as a SMILES string. Where two headings read alike, the source gives them in different places.

Data set [1] in a line: Mouse Pharmacokinetic Study (Example 1C). As to conditions: mouse, plasma, CD-1 mice; for Vd: read-out: Vdss. The format is in vivo. An outline of the steps:
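CD-1 mice dosed intravenously or by oral gavage; plasma sampled at 0.167, 0.5, 1, 2, 4, 6, 12 and 24 h post-dose. Samples analyzed by LC/MS/MS (MRM, positive mode) against a plasma standard curve of 1.0–3000 ng/mL; PK parameters from non-compartmental analysis.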

Data set [2] in a line: In Vitro Mouse liver S9 Metabolic Stability Assay (Example 1D). The format is in vitro ADME. As to conditions: CD-1 mouse liver S9, 1 μM compound, 1 mg/mL S9 protein, 37° C., NADPH regenerating system, UDPGA, PAPS. In short, it runs like this: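 Compound at 1 μM final (0.1% DMSO) incubated at 37° C with pooled CD-1 mouse liver S9 (1 mg/mL protein) plus NADPH-regenerating system, UDPGA and PAPS. Samples at 0 and 60 min quenched in cold acetonitrile with internal standard; LC-MS/MS analyte/IS peak-area ratios give % remaining at 60 min.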

In another data set the test system is Cyp1a1. The data set is described as follows: In Vivo Mouse liver and spleen Cyp1a1 Modulation Assay (Example 1E). The arrangement: species or system C57BL/6 mice. As to conditions: po, with AHR agonist VAG539 30 mg/kg po, qPCR. The method, then: C57BL/6 mice, female, 6-8 weeks old, weighing approximately 18-20 g were purchased from Shanghai Lingchang Biological Technology Co., Ltd or other certified vendors and used in the studies. Animal husbandry, feeding and health conditions are according to animal welfare guidelines. VAG539 (30 mg/kg, po) was used as AHRagonist, and test compounds were formulated in suitable vehicles, typically 0.5% methylcellulose).
C57BL/6 mice (n=3 per group) were treated with AHR agonist alone or with AHR agonist and test compounds. Animals were sacrificed at 4 or 10 hours after treatment upon which their livers and spleens were collected and subsequently analyzed by qPCR. Normalized fold induction of cyp1a1 was determined by comparing mCYP1A1 and mGAPDH counts (ct) according to: normalized fold=2^−ΔΔCt. The percent inhibition was calculated according to: […]
(In general: Quantitative PCR measures a nucleic acid by following its amplification.)

[3] abbreviates: 4 h, read-out: Cyp1a1 inhibition, Liver, 4 h.
Where [4] appears, read: 4 h, read-out: Cyp1a1 inhibition, Spleen, 4 h.
Where [5] appears, read: 10 h, read-out: Cyp1a1 inhibition, Liver, 10 h.

Broadly, the bioavailability is dose-corrected exposure relative to a reference, in per cent. Lower therefore signals poor availability. A word on the AUC(0-inf): it is the area under the concentration-time curve extrapolated to infinity. Usually AUC(0-t) stands for the area under the concentration-time curve up to a stated or last time point. Low readings indicate low exposure, high ones high exposure. Broadly, the clearance is the volume of plasma or blood freed of the substance per unit of time. A higher clearance goes with a high capacity for elimination. The term half-life denotes the time needed for the level to fall by half in the phase considered. A word on the Cmax: it is the maximum level reached in the sampled fluid or tissue. Usually Tmax stands for the time from dosing to the highest level. As usually defined, the inhibition is how much of the control response was suppressed. In data set [1] (po, 30 mg/kg), `CC(C)c1cnn2c(N[C@@H]3CCc4[nH]c5ccccc5c4C3)nc(-c3cncc(F)c3)nc12` [I-40, (3R)—N-[2-(5-Fluoro-3-pyridyl)-8-isopropyl-pyrazolo[1,5-a][1,3,5]triazin-4-yl]-2,3,4,9-tetrahydro-1H-carbazol-3-amine] yielded a bioavailability of 75%, an AUC(0-inf) of 9140 ng·h/mL, an AUC(0-t) of 7560 ng·h/mL and a Cmax of 853 ng/mL. For the same molecule, in data set [1] (po, 30 mg/kg), the Tmax turned out to be 2 h and the half-life was 8.8 h. In addition, in data set [1] (iv, 3 mg/kg), the AUC(0-inf) came to 1210 ng·h/mL, the AUC(0-t) was 1070 ng·h/mL, the clearance came to 41.2 mL/min/kg and the half-life was 8.4 h. Also, in data set [1] (iv, 3 mg/kg), the Vd was determined as 24 L/kg. Further, the “Mouse S9 Stability: % Remaining After 60 Minutes” value in data set [2] stood at 87%. Also, in the data set on Cyp1a1 (setting [3]), the inhibition at 5 mg/kg is 77%, the inhibition at 10 mg/kg is 93% and the inhibition at 25 mg/kg worked out at 98%. Besides, in the data set with Cyp1a1 (setting [4]), the inhibition at 5 mg/kg amounted to 34%, the inhibition at 10 mg/kg was 74% and the inhibition at 25 mg/kg is 96%. In addition, in the data set with Cyp1a1 (setting [5]), the inhibition at 5 mg/kg amounted to 48%, the inhibition at 10 mg/kg is 75% and the inhibition at 25 mg/kg was found to be 97%.
In data set [1] (po, 30 mg/kg), `Cc1cnn2c(NCCc3c[nH]c4ccccc34)cc(-c3cncc(F)c3)nc12` [I-70, 5-(5-Fluoro-3-pyridyl)-N-[2-(1H-indol-3-yl)ethyl]-3-methyl-pyrazolo[1,5-a]pyrimidin-7-amine] yielded a bioavailability of 26%, an AUC(0-inf) of 1990 ng·h/mL, an AUC(0-t) of 1940 ng·h/mL and a maximum concentration (Cmax) of 900 ng/mL. In data set [1] (po, 30 mg/kg), the Tmax stood at 0.5 h and the half-life is 2.26 h. Besides, in data set [1] (iv, 3 mg/kg), the AUC(0-inf) came to 872 ng·h/mL, the AUC(0-t) amounted to 862 ng·h/mL, the clearance is 54.9 mL/min/kg and the half-life was 1.08 h. In addition, in data set [1] (iv, 3 mg/kg), the Vd is 3.2 L/kg. Besides, the “Mouse S9 Stability: % Remaining After 60 Minutes” value in data set [2] was 0%. In the data set with Cyp1a1 (setting [3]), the inhibition at 1 mg/kg was determined as 52%, the inhibition at 2 mg/kg was 83%, the inhibition at 5 mg/kg amounted to 93% and the inhibition at 10 mg/kg was 99%. In the data set with Cyp1a1 (setting [3]), the inhibition at 30 mg/kg was determined as 98%. In the data set with Cyp1a1 (setting [4]), the inhibition at 1 mg/kg is 38%, the inhibition at 2 mg/kg was determined as 65%, the inhibition at 5 mg/kg came to 79% and the inhibition at 10 mg/kg was found to be 88%. In the data set on Cyp1a1 (setting [5]), the inhibition at 1 mg/kg stood at 34%, the inhibition at 2 mg/kg came to 63%, the inhibition at 5 mg/kg worked out at 96% and the inhibition at 10 mg/kg is 81%.
As for `CC(C)c1cnn2c(NCCc3c[nH]c4ccccc34)cc(-c3cncc(F)c3)nc12` [I-2, N-(2-(1H-indol-3-yl)ethyl)-5-(5-fluoropyridin-3-yl)-3-isopropylpyrazolo[1,5-a]pyrimidin-7-amine], in data set [1] (po, 30 mg/kg), the bioavailability worked out at 12%, the AUC(0-inf) came to 743 ng·h/mL, the AUC(0-t) is 730 ng·h/mL and the concentration peaked (Cmax) at 182 ng/mL. In data set [1] (po, 30 mg/kg), the time of peak concentration (Tmax) came to 0.2 h and the half-life is 3.9 h. In data set [1] (iv, 3 mg/kg), this molecule showed an AUC(0-inf) of 610 ng·h/mL, an AUC(0-t) of 554 ng·h/mL, a clearance of 82 mL/min/kg and a half-life of 1.99 h. Moreover, the Vd in data set [1] (iv, 3 mg/kg) worked out at 9.6 L/kg. Further, the “Mouse S9 Stability: % Remaining After 60 Minutes” value in data set [2] came out at 13%. In addition, the inhibition at 30 mg/kg with Cyp1a1 (setting [3]) was determined as 50%.
In the case of `Cc1cnn2c(N[C@@H]3CCc4[nH]c5ccccc5c4C3)nc(-c3cncc(F)c3)nc12` [I-201, (3R)—N-[2-(5-fluoro-3-pyridyl)-8-methyl-pyrazolo[1,5-a][1,3,5]triazin-4-yl]-2,3,4,9-tetrahydro-1H-carbazol-3-amine], in data set [1] (po, 30 mg/kg), the bioavailability was determined as 79%, the AUC(0-inf) was found to be 10600 ng·h/mL, the AUC(0-t) is 9650 ng·h/mL and the Cmax came to 1410 ng/mL. In data set [1] (po, 30 mg/kg), the Tmax stood at 1 h and the half-life is 7.16 h. Moreover, in data set [1] (iv, 3 mg/kg), the AUC(0-inf) amounted to 1330 ng·h/mL, the area under the curve AUC(0-t) turned out to be 1200 ng·h/mL, the clearance worked out at 37.5 mL/min/kg and the half-life was 8.52 h. Moreover, the Vd in data set [1] (iv, 3 mg/kg) came out at 19.6 L/kg. The “Mouse S9 Stability: % Remaining After 60 Minutes” value in data set [2] is given as 34%. Further, in the data set with Cyp1a1 (setting [3]), the inhibition at 5 mg/kg was found to be 58%, the inhibition at 10 mg/kg worked out at 72% and the inhibition at 25 mg/kg worked out at 86%. Also, in the data set with Cyp1a1 (setting [4]), the inhibition at 5 mg/kg stood at 40%, the inhibition at 10 mg/kg was 46% and the inhibition at 25 mg/kg turned out to be 72%. Also, in the data set with Cyp1a1 (setting [5]), the inhibition at 5 mg/kg worked out at 44%, the inhibition at 10 mg/kg turned out to be 59% and the inhibition at 25 mg/kg came out at 97%.
